Source: US20110245283A1, “Methods for predicting the response to statins” (priority 2009, published 2011)
Where two headings read alike, the source gives them in different places.

How the values were obtained:
LDL = assay: Logistic regression models of attaining LDL goal: odds ratios for concurrent or prior drug doses; format: in vivo, patients; settings: for OR: per dose increment
Description: G. Covariates for the multivariate model—The following list includes the predictors one or more of which may be tested in the multivariate models. • 1. AGE: (expressed in units of 10 years) at time that the new statin prescription was released • 2. GENDER, E. G., MALE: 1=yes, 0=no • 3. BMI (kg/M^2): last value before release date • 4. HBA1C (hemoglobin Alc): last value before release date • 5. PLDL: preceding LDL level expressed in e.g. 10 mg/dl units • 6. Statins • a. PLOVA: prior daily dose of lovastatin expressed in e.g. 10 mg units • b. […] For additional drugs: • a. AMIODOSE: amiodarone dose in mg/day • b. CARBDOSE: carbemazepine dose in mg/day • c. PIOGDOSE: pioglitazone dose expressed as number of 15 mg doses per day • d. […] METFDOSE: metformin dose expressed as number of 1000 mg doses per day • f. PHENDOSE: phenyloin dose in mg/day • g. RISPDOSE: risperidone dose in mg/day • h. ROSIDOSE: rosiglitazone dose in mg/day • i.
Body mass index (BMI) was chosen as a covariate of statin response because obese patients tend to consume a diet high in cholesterol. It was hypothesized that they would respond less well to statins because their hypercholesterolemia was more likely to be mediated by dietary indiscretion than excessive LDL synthesis. […] Metformin and the thiazolidinediones were chosen because they reduce LDL levels in diabetic patients through mechanisms that may or may not be affected by concurrent statin treatment. The remaining non-statin drugs were chosen because they are commonly used drugs that potentiate the effect of statins. They were selected by reviewing the official on-line VA pharmaceutical reference (Micromedex®) for major interactions mediated by impaired statin metabolism. […] The daily dose of the non-statin drug was calculated by the method described in Section B.
H. Assembling the predictor file—The patient identifier was used to link the new statin prescription type and dose, the preceding LDL above goal, and the type and dose of the previous statin (if any) with the patient's most recent HbA1c, most recent BMI, and the daily doses of 9 drugs with major statin interactions that were active at the time the new prescription was released.
The dependent variable was attainment of goal (LDL <100 mg/dl). […] Step selections were based upon the maximal likelihood method with α<0.15 to enter and ≧0.15 to remove.

[1] = cited from earlier work
[2] = odds of goal LDL <100 mg/dl, Lovastatin 20 mg [A] model (includes HbA1c; n = 595)
[3] = odds of goal, Lovastatin 20 mg [B] model (excludes HbA1c; n = 733)
[4] = odds of goal, Lovastatin 40 mg model (n = 764)
[5] = odds of goal, Simvastatin 10 mg [A] model (no previous treatment; n = 172)
[6] = odds of goal, Simvastatin 10 mg [C] model (excludes BMI; n = 219)
[7] = odds of goal, Simvastatin 40 mg model (n = 698)

Question: Which “Increase of odds of reaching goal” value (LDL; for every 120 mg per day diltiazem, lovastatin 20 mg model) does the source give for `COc1ccc([C@@H]2Sc3ccccc3N(CCN(C)C)C(=O)[C@@H]2OC(C)=O)cc1` [Diltiazem, diltiazem] here?
Answer: 70%

Question: And the OR (LDL; [2])?
Answer: 1.44

Question: And the OR (LDL; [3])?
Answer: 1.69

Question: And the OR (LDL; [4])?
Answer: 1.35

Question: What about the OR (LDL; [5]) of the same molecule?
Answer: 1.78

Question: And the OR (LDL; [6])?
Answer: 1.76

Question: What about the OR (LDL; [7]) of the same molecule?
Answer: 1.70

Question: For `CN(C)C(=N)N=C(N)N` [Metformin, metformin], which “Odds ratio for concurrent treatment” value (LDL; for every 1,000 mg daily, 2 models) is on record?
Answer: 1.3

Question: And the OR (LDL; [2])?
Answer: 1.30

Question: What about the OR (LDL; [3]) of the same molecule?
Answer: 1.26

Question: And the OR (LDL; [4])?
Answer: 1.22

Question: And the OR (LDL; [5])?
Answer: 1.84

Question: And the OR (LDL; [6])?
Answer: 1.98

Question: And the OR (LDL; [7])?
Answer: 1.31

Question: And the “Increase of odds of reaching goal” value (LDL; patient taking metformin, simvastatin 40 mg model)?
Answer: 30%

Question: With `CCc1ccc(CCOc2ccc(CC3SC(=O)NC3=O)cc2)nc1` (stereo not shown) [Pioglitazone, pioglitazone] as the molecule, how does the OR (LDL; [3]) read?
Answer: 2.06

Question: Which “Increased risk of toxicity or reduced statin effectiveness” value ([1]; with Atorva) does the source give for `CC(C)c1nc(CN(C)C(=O)N[C@H](C(=O)N[C@@H](Cc2ccccc2)C[C@H](O)[C@H](Cc2ccccc2)NC(=O)OCc2cncs2)C(C)C)cs1` [Rotinavir] here?
Answer: (+)

Question: And the “Severity of the interaction” value ([1]; with Atorva)?
Answer: 2

Question: And the “Increased risk of toxicity or reduced statin effectiveness” value ([1]; with Lova)?
Answer: (+)

Question: And the “Severity of the interaction” value ([1]; with Lova)?
Answer: 3

Question: And the “Increased risk of toxicity or reduced statin effectiveness” value ([1]; with Simva)?
Answer: (+)

Question: And the “Severity of the interaction” value ([1]; with Simva)?
Answer: 3

Question: What does the source list for `CC(C)(C)NC(=O)[C@@H]1C[C@@H]2CCCC[C@@H]2CN1C[C@@H](O)[C@H](Cc1ccccc1)NC(=O)[C@H](CC(N)=O)NC(=O)c1ccc2ccccc2n1` [Saquinavir]?
Answer: Increased risk of toxicity or reduced statin effectiveness ([1]; with Atorva): (+); Increased risk of toxicity or reduced statin effectiveness ([1]; with Lova): (+); Increased risk of toxicity or reduced statin effectiveness ([1]; with Simva): (+)

Question: Which “Increased risk of toxicity or reduced statin effectiveness” value ([1]; with Atorva) does the source give for `CC[C@H]1OC(=O)[C@H](C)C(=O)[C@H](C)[C@@H](O[C@@H]2O[C@H](C)C[C@H](N(C)C)[C@H]2O)[C@](C)(OC)C[C@@H](C)C(=O)[C@H](C)[C@H]2N(CCCCn3cnc(-c4cccnc4)c3)C(=O)O[C@]12C` [Telithromycin] here?
Answer: (+)

Question: And the “Severity of the interaction” value ([1]; with Atorva)?
Answer: 3

Question: And the “Increased risk of toxicity or reduced statin effectiveness” value ([1]; with Lova)?
Answer: (+)

Question: What about the “Severity of the interaction” value ([1]; with Lova) of the same molecule?
Answer: 3

Question: And the “Increased risk of toxicity or reduced statin effectiveness” value ([1]; with Simva)?
Answer: (+)

Question: What about the “Severity of the interaction” value ([1]; with Simva) of the same molecule?
Answer: 3

Question: For `CCC[C@@]1(CCc2ccccc2)CC(O)=C([C@H](CC)c2cccc(NS(=O)(=O)c3ccc(C(F)(F)F)cn3)c2)C(=O)O1` [Tipranavir], which “Increased risk of toxicity or reduced statin effectiveness” value ([1]; with Lova) is on record?
Answer: (+)

Question: And the “Severity of the interaction” value ([1]; with Lova)?
Answer: 3

Question: What about the “Increased risk of toxicity or reduced statin effectiveness” value ([1]; with Simva) of the same molecule?
Answer: (+)

Question: And the “Severity of the interaction” value ([1]; with Simva)?
Answer: 3

Question: With `Cc1c(C)c2c(c(C)c1O)CCC(C)(COc1ccc(CC3SC(=O)NC3=O)cc1)O2` (stereo not shown) [Troglitazone] as the molecule, how does the “Severity of the interaction” value ([1]; with Simva) read?
Answer: 1

Question: Which results are given for Cholestyramine?
Answer: Severity of the interaction ([1]; with Fluva): 1; Severity of the interaction ([1]; with Prava): 2

Question: Which “Severity of the interaction” value ([1]; with Prava) does the source give for Colestipol here?
Answer: 2

Question: Which “Severity of the interaction” value ([1]; with Rosuva) does the source give for Magaldrate here?
Answer: 2

Question: For Pectin, which “Severity of the interaction” value ([1]; with Atorva) is on record?
Answer: 2

Question: What about the “Severity of the interaction” value ([1]; with Fluva) of the same molecule?
Answer: 2

Question: What about the “Severity of the interaction” value ([1]; with Lova) of the same molecule?
Answer: 2

Question: What about the “Severity of the interaction” value ([1]; with Prava) of the same molecule?
Answer: 2

Question: What about the “Severity of the interaction” value ([1]; with Rosuva) of the same molecule?
Answer: 2

Question: And the “Severity of the interaction” value ([1]; with Simva)?
Answer: 2
